Experimental data reported in paper PMC8588041, “Protective Role of Flavonoids against Intestinal Pro-Inflammatory Effects of Silver Nanoparticles” (Molecules, 2021).
Like-named read-outs stand apart in the source and are kept apart here.

Tests used:
[1] = test system: Caco-2 cell line; experiment: Annexin V-FITC versus propidium iodide flow cytometry (cell death); conditions: for Apoptosis-preventive effect (apoptotic population versus AgNP controls): flavonoid 25 μM co-incubated 24 h with 4 nm and 19 nm AgNP 20 µg/mL, Caco-2
Method: The evaluation of cell death was analyzed by flow cytometry, following simultaneous staining with propidium iodide (PI) and Annexin V labeled with fluorescein isothiocyanate (FITC), according to a previously described method, using the Annexin V-FITC Apoptosis Detection Kit. Briefly, 5 × 10^5 cells/well were seeded in 6 well plates and exposed to 20 μg/mL AgNP (4 and 19 nm) and/or to the flavonoids quercetin or quercetagetin (25 μM) for 24 h. […] After the 24 h exposure, cell supernatants were discarded, and cells were washed with DPBS buffer and detached from cells plates with trypsin:EDTA solution. Individualized cells were counted in a Neubauer chamber, and after DPBS wash, cells were resuspended at a density of 1 × 10^6 cells/mL binding buffer provided by the kit. Subsequently, 1 × 10^5 cells were transferred to suitable cytometry tubes, and Annexin V-FITC and PI were added. The mixture was incubated for 15 min and at least 10,000 events were immediately read in a BD Accuri™ C6 Plus Flow Cytometer (BD biosciences, Becton, Franklin Lakes, NJ, USA). The green fluorescence corresponding to Annexin-V conjugated with FITC was followed in channel 1 (FL1) and plotted as a histogram of FL1 staining. Fluorescence due to the PI incorporation was followed in channel 3 (FL3).

[2] = test system: Caco-2 cell line; experiment: Nitrite measurement by Griess reaction (•NO production); format: cell-based, human; conditions: for Prevention of AgNP-induced •NO production: flavonoids at maximum non-cytotoxic concentrations, Caco-2, 24 h, data not shown
Method: Nitrite measurement was based on the colorimetric detection of the reaction product of nitrite with naphthylethylenediamine dihydrochloride. The concentration of nitrite, which reflects nitric oxide (^•NO) production, was measured in the cell-free supernatants collected from the Caco-2 cell line. […] After the incubation period, 150 μL of culture medium was collected and placed in 96-well plates. […] The absorbance was measured at 570 nm using an automatic plate reader.

[3] = test system: human neutrophils; experiment: Neutrophil viability, PI staining flow cytometry; format: cell-based; conditions: PEI 10 μg/mL, AgNO3 3 μg/mL, data not shown
Method: Following exposure, cells were centrifuged (400× g at 20 °C, during 5 min) and the supernatant was discarded. The pellet was resuspended in DPBS solution and centrifuged (200g at 20 °C, during 5 min). After centrifugation, the pellet was resuspended with 100 μL propidium iodide solution (1 µg/mL) and incubated for 15 min in the dark. After this time, 400 μL of DPBS buffer was added and the fluorescence was measured in flow cytometer. To restrict the analysis to neutrophils only, a polygon gate was set according to their light scattering properties (in a forward vs. side scatter plot) excluding cell debris and other blood cells. Fluorescence signals for at least 10,000 cells were collected in logarithmic mode and the data were analyzed using C Flow (Accuri®) software (BD, Becton, Dickinson and Company, Franklin Lakes, NJ, USA).

[4] = test system: human neutrophils; experiment: Neutrophil oxidative burst, DHR oxidation; conditions: for Effect of inhibitors on AgNP-induced DHR oxidation: DPI 10 µM, VAS2870 25 µM, Gö6983 1 µM, added with AgNP 10 µg/mL (4 nm and 19 nm); for Percentage of inhibition at the highest tested concentration: 25 μM flavonoid
Method: All patient-related procedures and protocols were performed in accordance with the Declaration of Helsinki and approved by the Ethics Committee of Centro Hospitalar do Porto. After written informed consent was obtained, venous blood from healthy human volunteers was collected by antecubital phlebotomy into vacuum tubes with K3EDTA. The isolation of human neutrophils was performed by the density gradient centrifugation method, as previously reported by our research group. Cells were resuspended in Tris buffer (25 mM Tris, 1.26 mM CaCl2, 5.37 mM KCl, 0.81 mM MgSO4, 140 mM NaCl and 5.55 mM D-Glucose) and the cell viability and cell yield (number of cells/mL) were determined by the trypan blue exclusion method using a Neubauer chamber.
The measurement of neutrophil oxidative burst was performed by monitoring the oxidation of DHR, by neutrophil-generated reactive species. Neutrophils (3 × 10^6 cells/mL) were incubated in a humidified incubator, at 37 °C, with 4 nm or 19 nm AgNP (0–10 µg/mL) alone or with flavonoids (0–25 µM) followed by DHR (10 µM) for 1 h 30 min.
The NADPH oxidase inhibitors, DPI (10 µM) and VAS2870 (25 µM), and the protein kinase C (PKC) inhibitor, Gö6983 (1 µM), were also tested, by their concomitant addition with AgNP (10 µg/mL). The fluorescence was measured in a microplate reader (λexcitation = 507 ± 20 nm/λemmission = 529 ± 20 nm).

[5] = test system: Caco-2 cell line; experiment: MTT reduction assay, cytotoxicity in Caco-2 cells; conditions: for Selected Maximum Concentration (maximum non-cytotoxic flavonoid concentration): Caco-2 cells, 24 h, MTT assay, tested 3.13 to 50 μM; for Protection against AgNP-induced cytotoxicity: 24 h co-incubation with 20 or 50 μg/mL AgNP (4 and 19 nm), non-toxic flavonoid concentrations (quercetagetin 50 µM)
Method: Cells were grown in a 5% CO2 atmosphere at 37 °C. For each experiment, the cells were used when reaching 80% of confluence, which represented 3 to 5 days of differentiation. Then, the proliferating Caco-2 cells were treated 24 h after seeding.
The MTT reduction assay was used to determine the cytotoxicity of PEI coated-AgNP of two sizes (4 and 19 nm) in the Caco-2 cell line. […] After the exposure period, the culture medium was replaced with fresh medium containing 0.5 mg/mL MTT and the cells were further incubated for 2 h. The resulting dark purple crystals of formazan were then dissolved in DMSO and the absorbance of the corresponding solution, which was directly proportional to the number of living cells, was measured in an automatic plate reader set at a test wavelength of 570 nm and a reference wavelength of 620 nm.

[6] = test system: Caco-2 cells; conditions: cited from earlier work
[7] = Homo sapiens, Neutrophil, read-out: IC50 (Mean ± SEM), inhibition of AgNP 4 nm-induced oxidative burst, AgNP 4 nm, human neutrophils, DHR
[8] = Homo sapiens, Neutrophil, read-out: IC50 (Mean ± SEM), inhibition of AgNP 19 nm-induced oxidative burst, AgNP 19 nm, human neutrophils, DHR
[9] = read-out: IC50 (Mean ± SEM), inhibition of AgNP 4 nm-induced oxidative burst, AgNP 4 nm, human neutrophils, DHR

O=[N+]([O-])[O-].[Ag+] [AgNO3, Silver nitrate, reference compound]
Cell viability (Annexin V/PI) ([1]; PEI 20 μg/mL, AgNO3 4.5 μg/mL, Caco-2, 24 h, data not shown): did not induce significant alterations in cell viability | •NO production ([2]; 9 μg/mL AgNO3, 24 h, Caco-2): induced a significant production of ^•NO | Neutrophil viability [3]: did not affect neutrophil viability | Neutrophil oxidative burst ([4]; PEI 10 μg/mL, AgNO3 3 μg/mL, data not shown): did not affect neutrophil oxidative burst

c1ccc2c(c1)[I+]c1ccccc1-2 [DPI, diphenyleneiodonium chloride, reference compound]
Effect of inhibitors on AgNP-induced DHR oxidation [4]: decreased DHR oxidation induced by 4nm and 19 nm AgNP

COc1ccc(-c2cc(=O)c3c(O)cc(O)cc3o2)cc1O [Diosmetin]
Percentage of inhibition at the highest tested concentration ([4]; AgNP 4 nm, human neutrophils, DHR): 37 ± 3 % | Percentage of inhibition at the highest tested concentration ([4]; AgNP 19 nm, human neutrophils, DHR): 37 ± 7 % | IC50 ([4]; Homo sapiens, Neutrophil, read-out: IC50, inhibition of AgNP-induced neutrophil oxidative burst, AgNP of 4 and 19 nm, human neutrophils, DHR): > 25 µM

O=c1c(O)c(-c2ccc(O)c(O)c2)oc2c(O)c(O)cc(O)c12 [Gossypetin]
IC50 ([4]; Homo sapiens, Neutrophil, read-out: IC50 (Mean ± SEM), inhibition of AgNP 4 nm-induced oxidative burst): 2.1 ± 0.3 µM | IC50 ([4]; Homo sapiens, Neutrophil, read-out: IC50 (Mean ± SEM), inhibition of AgNP 19 nm-induced oxidative burst): 4.5 ± 1.2 µM

COc1ccc2c(c1)c(C1=C(c3c[nH]c4ccccc34)C(=O)NC1=O)cn2CCCN(C)C [Gö6983, 3-[1-[3-(dimethylamino)propyl]-5-methoxy-1H-indol-3-yl]-4-(1H-indol-3-yl)-1H-pyrrole-2,5-dione, reference compound]
Effect of inhibitors on AgNP-induced DHR oxidation [4]: prevented the activation of neutrophil oxidative burst induced by AgNP

O=c1cc(-c2ccc(O)c(O)c2)oc2cc(O)cc(O)c12 [Luteolin]
Selected Maximum Concentration (maximum non-cytotoxic flavonoid concentration) [5]: 12.5 µM | IC50 [4, 7]: 1.3 ± 0.2 µM | IC50 [4, 8]: 1.3 ± 0.2 µM

O=c1c(O)c(-c2ccc(O)cc2O)oc2cc(O)cc(O)c12 [Morin]
Selected Maximum Concentration (maximum non-cytotoxic flavonoid concentration) [5]: 50.0 µM | IC50 [4, 7]: 1.4 ± 0.4 µM | IC50 [4, 8]: 1.5 ± 0.4 µM

O=c1c(O)c(-c2cc(O)c(O)c(O)c2)oc2cc(O)cc(O)c12 [Myricetin]
Selected Maximum Concentration (maximum non-cytotoxic flavonoid concentration) [5]: 50.0 µM | IC50 [4, 7]: 2.3 ± 0.1 µM | IC50 [4, 8]: 3.1 ± 0.2 µM

O=c1c(O)c(-c2ccc(O)c(O)c2)oc2cc(O)c(O)c(O)c12 [Quercetagetin]
Protection against AgNP-induced cytotoxicity [5]: prevented the cytotoxic effects of the two sizes of AgNP | Protection against AgNP-induced cytotoxicity ([5]; listed as quercetagetin): significantly reduced the cell death induced by AgNP of 4 and 19 nm | Selected Maximum Concentration (maximum non-cytotoxic flavonoid concentration) [5]: 50.0 µM | Percentage of apoptotic cells on co-treatment ([1]; co-treatment with 4 nm AgNP (20 μg/mL), Caco-2, 24 h): increased the percentage of apoptotic cells | Apoptosis-preventive effect (apoptotic population versus AgNP controls) [1]: did not significantly decrease the apoptotic population | Prevention of AgNP-induced •NO production [2]: neither quercetin nor quercetagetin prevented AgNP-induced ^•NO production | IC50 [4, 7]: < 1 µM | IC50 [4, 8]: 3 ± 0.2 µM | IC50 [4, 9]: 0.53 ± 0.06 µM

O=c1c(O)c(-c2ccc(O)c(O)c2)oc2cc(O)cc(O)c12 [Quercetin]
Protection against AgNP-induced cytotoxicity [5]: partially prevented AgNP cytotoxicity | Protection against AgNP-induced cytotoxicity ([5]; listed as quercetin): significantly reduced the cell death induced by AgNP of 4 and 19 nm | Selected Maximum Concentration (maximum non-cytotoxic flavonoid concentration) [5]: 25.0 µM | Apoptosis-preventive effect (apoptotic population versus AgNP controls) [1]: reversed the pro-apoptotic effect of AgNP | Prevention of AgNP-induced •NO production [2]: neither quercetin nor quercetagetin prevented AgNP-induced ^•NO production | IC50 [4, 7]: < 1 µM | IC50 [4, 8]: 3.1 ± 0.6 µM | IC50 [4, 9]: 0.94 ± 0.09 µM | Reversal of loss of viability induced by AgNP ([6]; 10 and 50 µM, Caco-2 cells treated with AgNP < 20 nm (30–90 μg/mL)): most effectively reversed the loss of viability induced by AgNP | Reversal of toxicity induced by AgNP ([6]; quercetin 50 µM, AgNP ≥45 μg/mL, ref Martirosyan et al.): successfully reverted the toxicity induced by AgNP

c1ccc(Cn2nnc3c(Sc4nc5ccccc5o4)ncnc32)cc1 [VAS2870, reference compound]
Effect of inhibitors on AgNP-induced DHR oxidation [4]: decreased DHR oxidation induced by 4nm and 19 nm AgNP
